From patent US9676820B2, “Method for inhibiting proliferation of high LIX1L-expressing tumor cell, and tumor cell proliferation-inhibiting peptide” (National University Corporation Hamamatsu University School …, priority 2013, dated 2017)

Legend:
K562 strain = experiment: MTT assay, K562 strain; format: cell-based
Protocol: (§1) Specifically, first, cells plated in a 96-well microplate such that the density thereof became 5×10^3 cells/well were cultured for one night in a culture solution having the same composition as those in the reference examples. Thereafter, the culture solution was exchanged with 100 μL of a culture solution of which the concentration of peptides is 0 μM to 100 μM for culturing for 72 hours. After the culturing, an MTT-containing PBS solution was added to the culture solution, and the mixture was incubated for 4 hours. Then, formazan which was generated by putting 100 μL of isopropanol (containing 34 (v/v) % of hydrochloric acid) into each of the wells was dissolved. The absorbance of each of the wells of the microplate at 570 nm was measured using a microplate reader. As controls, culturing was performed in the same manner except that no peptide was added to the strains, an MTT assay was performed thereon, and the absorbance at 570 nm was measured (untreated).
(§2) Specifically, the cells were cultured for 72 hours similarly to Example 2 except that a peptide to be added to a cell strain was set to peptide 1, 3, or 4, or a control peptide, an MTT assay was performed thereon, and the absorbance at 570 nm was measured.
(§3) In the method for measuring the viable cell counts, cells were cultured for 3 days similarly to Example 1 except that a 25 μM (10 μM for an HL-60 strain, a K562 strain, and a U937 strain) culture solution containing a control peptide or a peptide 1 was used, and the viable cell counts were measured. As a comparison, culturing was performed similarly to the above using a culture solution containing no peptide, and the viable cell counts were measured (untreated).
(§4) In addition, in the method for performing an MTT assay, cells were cultured for 72 hours similarly to Example 2 except that a peptide to be added to a strain was set to a control peptide or a peptide 1 at 25 μM (10 μM for an HL-60 strain, a K562 strain, and a U937 strain), an MTT assay was performed thereon, and the absorbance at 570 nm was measured. As a comparison, culturing was performed similarly to the above using a culture solution containing no peptide, and the MTT assay was performed thereon (untreated).
(§5) Specifically, the cells were cultured for 72 hours similarly to Example 2 except that a peptide to be added to a cell was set to a peptide 1, 2, 5, or 6, MTT assays were performed thereon, and the absorbance at 570 nm was measured. As a comparison, culturing was performed similarly to the above using a culture solution containing no peptide, and the MTT assay was performed thereon (untreated).
as §5, with “that peptides” for “that a peptide”, “to” for “to a”, “cell strains were” for “cell was”, “to peptides 7 to 14,” for “to a peptide 1, 2, 5, or 6,”
Specifically, the cells were cultured for 72 hours similarly to Example 2 except that a peptide to be added to a cell strain was set to a peptide 15 or 16, an MTT assay was performed thereon, and the absorbance at 570 nm was measured. As a comparison, culturing was performed similarly to the above using a culture solution containing no peptide, and the MTT assay was performed thereon (untreated).

U937 strain = experiment: MTT assay, U937 strain; format: cell-based
Protocol: as §1, §2, §3, §4

293 FLG = experiment: MTT assay, 293 FLG cells; format: cell-based
Protocol: as §1, with “Thereafter, the culture solution was exchanged with 100 μL of a culture solution of which the concentration of peptides is 0 μM to 100 μM for culturing for 72 hours.” left out
as §3, §4, §5
(§6) Specifically, the cells were cultured for 72 hours similarly to Example 2 except that peptides to be added to cell strains were set to peptides 7 to 14, MTT assays were performed thereon, and the absorbance at 570 nm was measured. […]
(§7) Specifically, the cells were cultured for 72 hours similarly to Example 2 except that a peptide to be added to a cell strain was set to a peptide 15 or 16, an MTT assay was performed thereon, and the absorbance at 570 nm was measured. […]

MKN45 strain = experiment: MTT assay, MKN45 strain; format: cell-based
Protocol: as §1, with “Thereafter, the culture solution was exchanged with 100 μL of a culture solution of which the concentration of peptides is 0 μM to 100 μM for culturing for 72 hours.” left out
as §3, §4, §5, §6, §7

MKN45 cell strains = experiment: Cancer mouse model transplanted with MKN45 cell strain; format: in vivo; conditions: nude mice with MKN45 transplant
Protocol: Rearing of 10 nude male mice (BALB/cAJcl-nu/nu, purchased from CLEA Japan, Inc.) at the age of 7 weeks was started, and MKN45 cell strains separately cultured were transplanted into the mice by being subcutaneously injected thereinto on day 31. The day on which the transplantation was performed was set as day 0, the mice were divided into two groups (peptide 1-administered group and control peptide-administered group) of 5 mice on day 14 of the transplantation, 4 mice were selected among the 5 mice from each group, and the peptide 1 or the control peptide was administered. The remaining one mouse was set as a spare. In the peptide 1-administered group, 100 μL of a 30 μM peptide 1 solution (solution prepared by adding a methylcellulose solution to the solution after the peptide 1 was dissolved in PBS (−)) was subcutaneously injected into a tumor site (site into which the MKN45 cell strain was injected) 4 times every 3 days. In the control peptide-administered group, 100 μL of a 30 μM control peptide solution (solution prepared by adding a methylcellulose solution to the solution after the control peptide was dissolved in PBS (−)) was subcutaneously injected into a tumor site 4 times on the same days as those in the peptide 1-administered group.
The results in which the points of time (days) at which a peptide solution was administered to each mouse and the volume (mm^3) of a tumor site were temporally measured are shown in FIG. 21. For the volume of the tumor site, the width and the length of the tumor site determined from the appearance of the mouse were measured and calculated using the following formula. [Volume(mm^3) of Tumor Site]=([Width(mm) of Tumor Site]^2×[Length(mm) of Tumor Site])/2
The “width of tumor site” referred herein means a maximum width of a portion in which the skin has risen due to the tumor and the “length of tumor site” means a maximum length of a portion in which the skin has risen due to the tumor.

293 FLG/LIX1L = experiment: Colony formation assay (agarose), 293 FLG/LIX1L cells (Example 9); format: cell-based; conditions: 293 FLG/LIX1L/PY136 cells, 14 days
Protocol: In the colony formation assay, the 293 FLG cells, the 293 FLG/LIX1L cells, and the 293 FLG/LIX1L/PY136 cells were respectively mixed in 10% FCS-containing DMEM culture media, to which 0.4% agarose was added, and the mixtures were gently placed on 0.6% agarose- and 10% FCS-containing DMEM culture media for culturing for 14 days. Thereafter, the influence of LIX1L and PY136 on cell proliferation was evaluated by counting the number of colonies in each well using an optical microscope (manufactured by Zeiss).

[1] = 72 hours, peptide concentrations up to 250 μM
[2] = peptide 0 μM to 100 μM, 72 hours
[3] = peptide 10 μM, 3 days / 72 hours
[4] = peptide 25 μM, 3 days / 72 hours

Compound: CC(C)[C@H](NC(=O)[C@H](Cc1ccc(O)cc1)NC(=O)[C@H](CS)NC(=O)[C@@H](NC(=O)[C@H](Cc1ccc(O)cc1)NC(=O)[C@@H]1CCCN1C(=O)[C@@H]1CCCN1C(=O)[C@H](CO)NC(=O)[C@H](CC(N)=O)NC(=O)[C@H](CO)NC(=O)[C@@H]1CCCN1C(=O)CCCCCNC(=O)[C@H](CCCNC(=N)N)NC(=O)[C@H](CCCNC(=N)N)NC(=O)[C@H](CCCNC(=N)N)NC(=O)[C@H](CCC(N)=O)NC(=O)[C@H](CCCNC(=N)N)NC(=O)[C@H](CCCNC(=N)N)NC(=O)[C@H](CCCCN)NC(=O)[C@H](CCCCN)NC(=O)[C@H](CCCNC(=N)N)NC(=O)CNC(=O)[C@@H](N)Cc1ccc(O)cc1)C(C)C)C(N)=O [peptide 1, YGRKKRRQRRR-X-PSNSPPYVCYV-NH2]
- cell proliferation (MTT assay, absorbance at 570 nm) (K562 strain; [1]): inhibited
- concentration at which a dominant effect of inhibiting the cell proliferation was recognized (K562 strain; MTT assay, 72 hours): greater than or equal to 6.25 μM
- absorbance at 570 nm (MTT assay), influence on cell proliferation (K562 strain; [2]): inhibited
- cell proliferation (viable cell counts and MTT assay) (K562 strain; [3]): inhibited
- absorbance at 570 nm (MTT assay), cell proliferation (U937 strain; [2]): inhibited
- cell proliferation (viable cell counts and MTT assay) (U937 strain; [3]): inhibited
- cell proliferation (MTT assay, absorbance at 570 nm) (293 FLG; [1]): inhibited
- cell proliferation (viable cell counts and MTT assay) (293 FLG; [4]): not inhibited
- cell proliferation (MTT assay, absorbance at 570 nm) (MKN45 strain; [1]): inhibited
- cell proliferation (viable cell counts and MTT assay) (MKN45 strain; [4]): inhibited
- body weight (MKN45 cell strains; 100 μL of 30 μM peptide solution 4 times, vs spare mice given nothing): no particularly significant change
- volume (size) of the tumor site (MKN45 cell strains; 100 μL of 30 μM peptide solution subcutaneously into tumor site 4 times every 3 days from day 14): rarely changed
- formation of colonies (colony formation assay) (293 FLG/LIX1L): significantly inhibited
